Experimental data published in patent US8940310B2, “Methods of treatment using TLR7 and/or TLR9 inhibitors” (Dynavax Technologies Corporation, priority 2010, dated 2015).
Marks after values point to notes of the source that are not given here. [I] = hypoxanthine (inosine)

Legend:
[1] = Monomer and tetramer formation of IRPs, size-exclusion HPLC; type: physicochemical; details: 100 mg/mL in PBS and 0.5M KCl, room temperature, five weeks
Procedure: Solutions were prepared of the by mixing 100 mg/mL of the IRP sequences in PBS and 0.5M KCl and storing at room temperature for three to five weeks. The solutions were subsequently analyzed by size-exclusion HPLC.

[2] = High dosages of IRPs in rats (weight, deaths, histology); type: in vivo, Sprague Dawley rats; details: rat; for Heart: Cell Vacuolation, number of animals / Heart: Hemorrhage, number of animals / Heart: Mononuclear Cell Infiltration, number of animals / Heart: Necrosis, number of animals / Heart: No significant changes, number of animals / Liver: Liver changes, number of animals / Liver: Mixed cell infiltration, number of animals / Liver: Necrosis, number of animals / Liver: No significant changes, number of animals / Liver: Vacuolation, number of animals / Right Kidney: Hydronephrosis, number of animals / Right Kidney: Mineralization, number of animals / Right Kidney: Necrosis, number of animals / Right Kidney: No significant changes, number of animals / Right Kidney: Tubular basophilia, number of animals / Right Kidney: Tubular changes, number of animals: 6 animals
Procedure: To test the activity of IRPs at high dosages in rats, IRPs (SEQ ID NO:42 and SEQ ID NO:109) or a control (PBS) were subcutaneously administered to 8-9 weeks old, […], 3, 6, and 9 (n=6 per group). Rats were weighed prior to administration and on days 1, 3, 4, 6, 7, and 9. Organs were harvested at the end of the study, and organ weights and tissues levels of the oligonucleotides were determined. In addition, histolocial evaluation of the liver, kidney, and heart was performed.
Rats were weighed prior to administration and on days 1, 3, 6, 7, and 9. Organs were harvested at the end of the study, and organ weights and tissues levels of the oligonucleotides were determined. In addition, histological evaluation of the liver, kidney, and heart was performed.

[3] = High dosages of IRPs in mice (weight, histology); type: in vivo, BALB/c mice; details: for Heart: Chronic inflammation, mean severity score / Heart: Mineralization, mean severity score / Liver: Liver changes, mean severity score / Liver: Mixed cell infiltration, mean severity score / Right Kidney: Tubular changes, mean severity score: 0 = no change to 4 = severe; for Liver: Liver changes, number of animals / Liver: Mixed cell infiltration, number of animals / Liver: No significan changes, number of animals / Right Kidney: No significant changes, number of animals / Right Kidney: Tubular basophilia, number of animals / Right Kidney: Tubular changes, number of animals: 6 animals; for Heart: No significant changes, number of animals: tissue missing in two animals
Procedure: To test the activity of IRPs at high dosages in mice, IRPs or a control (saline) were subcutaneously administered to BALB/c mice at a dosage of 4 mg/kg, 20 mg/kg, 50 mg/kg, or 100 mg/kg on days 1, 4, 7, and 10 (n=5 per group). Mice were weighed prior to administration and on days 2, 4, 7, 9, and 11. Serum cytokines were assayed at two hours post the first and third injections and 24 hours post the fourth injection. Organs were harvested at the end of the study, and organ weights and tissues levels of the oligonucleotides were determined. In addition, histological evaluation of the liver, kidney, and heart was performed.
Mice were weighed prior to administration and on days 1, 3, 4, 6, 7, and 9. Organs were harvested at the end of the study, and organ weights and tissues levels of the oligonucleotides were determined. In addition, histological evaluation of the liver, kidney, and heart was performed.

human B-cells = experiment: Human B-cells cultured in the presence of IRPs, IL-6; details: for B-cell stimulatory activity: FIG. 1C, percent IL-6 from CpG-ISS
[4] = 10 mg/kg, 0 = no change to 4 = severe
[5] = 90 mg/kg, 0 = no change to 4 = severe
[6] = Experiment # 3, Max Conc 4.0 uM

Substance: 5′-TGC TGC TCC TGG AGI GGT GTT GT-3′ (DNA TGCTGCTCCTGGAGNGGTGTTGT; DNA, [I] at 15, backbone and methylation of C not given here) [SEQ ID NO:79]
- fraction in monomer form [1]: 100%
- Heart: Cell Vacuolation, number of animals ([2]; 10 mg/kg): 0
- Heart: Hemorrhage, number of animals ([2]; 10 mg/kg): 0
- Heart: Mononuclear Cell Infiltration, number of animals ([2]; 10 mg/kg): 0
- Heart: Necrosis, number of animals ([2]; 10 mg/kg): 0
- Heart: No significant changes, number of animals ([2]; 10 mg/kg): 6
- Liver: Liver changes, number of animals ([2]; 10 mg/kg): 0
- Liver: Mixed cell infiltration, number of animals ([2]; 10 mg/kg): 6
- Liver: Necrosis, number of animals ([2]; 10 mg/kg): 0
- Liver: No significant changes, number of animals ([2]; 10 mg/kg): 0
- Liver: Vacuolation, number of animals ([2]; 10 mg/kg): 0
- Right Kidney: Hydronephrosis, number of animals ([2]; 10 mg/kg): 0
- Right Kidney: Mineralization, number of animals ([2]; 10 mg/kg): 2
- Right Kidney: Necrosis, number of animals ([2]; 10 mg/kg): 0
- Right Kidney: No significant changes, number of animals ([2]; 10 mg/kg): 1
- Right Kidney: Tubular basophilia, number of animals ([2]; 10 mg/kg): 0
- Right Kidney: Tubular changes, number of animals ([2]; 10 mg/kg): 5
- Liver: Mixed cell infiltration, mean severity score [2, 4]: 1.8
- Right Kidney: Mineralization, mean severity score [2, 4]: 1.0
- Right Kidney: Tubular changes, mean severity score [2, 4]: 1.1
- Heart: cellular vacuolation ([2]; 90 mg/kg): present in some animals
- Heart: hemorrhage and necrosis ([2]; 90 mg/kg): noted
- Kidney: tubular basophilia ([2]; 90 mg/kg): occurred
- Liver: hepatocellular cytoplasmic vacuolation ([2]; 90 mg/kg): hepatocellular cytoplasmic vacuolation
- Liver: hepatocellular necrosis ([2]; 90 mg/kg): hepatocellular necrosis
- Renal necrosis ([2]; 90 mg/kg): noted
- deaths two days after the first dose ([2]; 90 mg/kg SC, n=6): two rats died
- deaths two days after the second dose ([2]; 90 mg/kg SC, n=6): one rat died
- Heart: Cell Vacuolation, number of animals ([2]; 90 mg/kg): 2
- Heart: Hemorrhage, number of animals ([2]; 90 mg/kg): 2
- Heart: Mononuclear Cell Infiltration, number of animals ([2]; 90 mg/kg): 0
- Heart: Necrosis, number of animals ([2]; 90 mg/kg): 3
- Heart: No significant changes, number of animals ([2]; 90 mg/kg): 1
- Liver: Liver changes, number of animals ([2]; 90 mg/kg): 3
- Liver: Mixed cell infiltration, number of animals ([2]; 90 mg/kg): 3
- Liver: Necrosis, number of animals ([2]; 90 mg/kg): 2
- Liver: No significant changes, number of animals ([2]; 90 mg/kg): 0
- Liver: Vacuolation, number of animals ([2]; 90 mg/kg): 3
- Right Kidney: Hydronephrosis, number of animals ([2]; 90 mg/kg): 0
- Right Kidney: Mineralization, number of animals ([2]; 90 mg/kg): 1
- Right Kidney: Necrosis, number of animals ([2]; 90 mg/kg): 3
- Right Kidney: No significant changes, number of animals ([2]; 90 mg/kg): 0
- Right Kidney: Tubular basophilia, number of animals ([2]; 90 mg/kg): 2
- Right Kidney: Tubular changes, number of animals ([2]; 90 mg/kg): 3
- Heart: Cell Vacuolation, mean severity score [2, 5]: 1.5
- Heart: Hemorrhage, mean severity score [2, 5]: 3.5
- Heart: Necrosis, mean severity score [2, 5]: 2.0
- Liver: Liver changes, mean severity score [2, 5]: 1.8
- Liver: Mixed cell infiltration, mean severity score [2, 5]: 2.5
- Liver: Necrosis, mean severity score [2, 5]: 2.8
- Liver: Vacuolation, mean severity score [2, 5]: 2.3
- Right Kidney: Mineralization, mean severity score [2, 5]: 2.0
- Right Kidney: Necrosis, mean severity score [2, 5]: 4.0
- Right Kidney: Tubular basophilia, mean severity score [2, 5]: 2.8
- Right Kidney: Tubular changes, mean severity score [2, 5]: 2.0
- Heart: Chronic inflammation, number of animals ([3]; 50 mg/kg): 2
- Heart: Mineralization, number of animals ([3]; 50 mg/kg): 1
- Heart: Chronic inflammation, mean severity score ([3]; 50 mg/kg): 2.0
- Heart: Mineralization, mean severity score ([3]; 50 mg/kg): 2.0
- Liver: Liver changes, mean severity score ([3]; 50 mg/kg): 1.0
- Liver: Mixed cell infiltration, mean severity score ([3]; 50 mg/kg): 1.0
- Liver: Liver changes, number of animals ([3]; 50 mg/kg): 6
- Liver: Mixed cell infiltration, number of animals ([3]; 50 mg/kg): 4
- Liver: No significan changes, number of animals ([3]; 50 mg/kg): 0
- Right Kidney: No significant changes, number of animals ([3]; 50 mg/kg): 6
- Right Kidney: Tubular basophilia, number of animals ([3]; 50 mg/kg): 0
- Right Kidney: Tubular changes, number of animals ([3]; 50 mg/kg): 0
- Heart: No significant changes, number of animals ([3]; 50 mg/kg): 1**
- Heart: Chronic inflammation, number of animals ([3]; 100 mg/kg): 1
- Heart: Mineralization, number of animals ([3]; 100 mg/kg): 2
- Heart: Chronic inflammation, mean severity score ([3]; 100 mg/kg): 3.0
- Heart: Mineralization, mean severity score ([3]; 100 mg/kg): 2.5
- Liver: Liver changes, mean severity score ([3]; 100 mg/kg): 2.0
- Liver: Mixed cell infiltration, mean severity score ([3]; 100 mg/kg): 2.0
- Right Kidney: Tubular changes, mean severity score ([3]; 100 mg/kg): 2.0
- Liver: Liver changes, number of animals ([3]; 100 mg/kg): 6
- Liver: Mixed cell infiltration, number of animals ([3]; 100 mg/kg): 6
- Liver: No significan changes, number of animals ([3]; 100 mg/kg): 0
- Right Kidney: No significant changes, number of animals ([3]; 100 mg/kg): 0
- Right Kidney: Tubular basophilia, number of animals ([3]; 100 mg/kg): 0
- Right Kidney: Tubular changes, number of animals ([3]; 100 mg/kg): 6
- Heart: No significant changes, number of animals ([3]; 100 mg/kg): 1**
- Normalized IL-6 Response (Percentage of Positive Control) (human B-cells; Experiment # 1, Max Conc 4.0 uM): 33%
- Normalized IL-6 Response (Percentage of Positive Control) (human B-cells; [6]): 18%
- Normalized IL-6 Response (Percentage of Positive Control) (human B-cells; Experiment # 11, Max Conc 2.0 uM): 28%
- B-cell stimulatory activity (human B-cells): low B-cell stimulatory activity

Substance: 5′-TGC TGC TCC TGG AGI GGT TG-HEG-T-3′ (DNA TGCTGCTCCTGGAGNGGTTGNT; inosine, internal HEG spacer, chemistry not fully specified) [SEQ ID NO:144]
- fraction in monomer form [1]: 100%
- Liver: hepatocellular cytoplasmic vacuolation ([2]; 10 mg/kg): hepatocellular cytoplasmic vacuolation
- Heart: cellular vacuolation ([2]; 90 mg/kg): present in some animals
- Kidney: tubular basophilia ([2]; 90 mg/kg): occurred
- Liver: hepatocellular cytoplasmic vacuolation ([2]; 90 mg/kg): hepatocellular cytoplasmic vacuolation
- Liver: hepatocellular necrosis ([2]; 90 mg/kg): hepatocellular necrosis
- Heart: Chronic inflammation, number of animals ([3]; 100 mg/kg): 1
- Heart: Mineralization, number of animals ([3]; 100 mg/kg): 2
- Heart: Chronic inflammation, mean severity score ([3]; 100 mg/kg): 3.0
- Heart: Mineralization, mean severity score ([3]; 100 mg/kg): 2.5
- Liver: Liver changes, mean severity score ([3]; 100 mg/kg): 2.0
- Liver: Mixed cell infiltration, mean severity score ([3]; 100 mg/kg): 2.0
- Right Kidney: Tubular changes, mean severity score ([3]; 100 mg/kg): 2.0
- Liver: Liver changes, number of animals ([3]; 100 mg/kg): 6
- Liver: Mixed cell infiltration, number of animals ([3]; 100 mg/kg): 6
- Liver: No significan changes, number of animals ([3]; 100 mg/kg): 0
- Right Kidney: No significant changes, number of animals ([3]; 100 mg/kg): 0
- Right Kidney: Tubular basophilia, number of animals ([3]; 100 mg/kg): 0
- Right Kidney: Tubular changes, number of animals ([3]; 100 mg/kg): 6
- Heart: No significant changes, number of animals ([3]; 100 mg/kg): 1**
- Normalized IL-6 Response (Percentage of Positive Control) (human B-cells; [6]): 10%
- B-cell stimulatory activity (human B-cells): low B-cell stimulatory activity
